Source: US20120064056A1, “DICHLORACETATE IN COMBINATION WITH CLINICALLY HIGH LEVELS OF CARDIOPROTECTIVE OR HEMODYNAMIC DRUGS” (THE GOVERNORS OF THE UNIVERSITY OF ALBERTA TEC Edmonton, priority 2002, published 2012)

Legend:
[1] = system: isolated rat hearts; test: Isolated working rat heart, aerobic perfusion: glycolysis and glucose oxidation; set-up: glycolytic rates (glycolysis) / glucose oxidation rates: unit not given here; conditions: normal hearts, aerobic, DCA 2 mM, digoxin 3 nM, diltiazem 0.8 μM, dobutamine 1 μM, metoprolol 1 μM
Description: (§1) Rat hearts were cannulated for isolated working heart perfusions as described in “An imbalance between glycolysis and glucose oxidation is a possible explanation for the detrimental effects of high levels of fatty acids during aerobic reperfusion of ischemic hearts.”, (J Pharmacol Exp Ther. 264:135 (1993); herein incorporated by reference. In brief, male Sprague-Dawley rats (0.3-0.35 kg) were anesthetized with pentobarbital sodium (60 mg/kg IP) and hearts were quickly excised, the aorta was cannulated and a retrograde perfusion at 37° C. was initiated at a hydrostatic pressure of 60 mm Hg. Hearts were trimmed of excess tissue, and the pulmonary artery and the opening to the left atrium were then cannulated. After 15 min of Langendorff perfusion, hearts were switched to the working mode by clamping the aortic inflow line from the Langendorff reservoir and opening the left atrial inflow line. The perfusate was delivered from an oxygenator into the left atrium at a constant preload pressure of 11 mm Hg. Perfusate was ejected from spontaneously beating hearts into a compliance chamber (containing 1 ml of air) and into the aortic outflow line. The afterload was set at a hydrostatic pressure of 80 mm Hg. All working hearts were perfused with Krebs'-Henseleit solution containing calcium 2.5 mmol/L, glucose 5.5 mmol/L, 3% bovine serum albumin (Fraction V, Boehringer Mannheim), and with 1.2 mmol/L palmitate. Palmitate was bound to the albumin as described previously (Saddik M., et al. J Biol. Chem. 267:3825-3831 (1992)). The perfusate was recirculated, and pH was adjusted to 7.4 by bubbling with a mixture containing 95% O2 and 5% CO2. For the aerobic model hearts, all tested compounds were introduced into the heart 5 minutes into the working mode following Langendorff Perfusion.
Glycolysis and glucose oxidation were measured simultaneously by perfusing hearts with [5-^3H/U-^14C] glucose (Liu H., et al. Am J Physiol. 270:H72-H80 (1996); Taegtmeyer Het al. Am J Cardiol. 80:3A-10A (1997)). The total myocardial ^3H2O production and ^14CO2 production were determined at 10 minute intervals for the entirety of the aerobic period, 60 minutes for normal hearts and 30 minutes for the global ischemia and low flow demand ischemia models. In the global ischemia model, the total myocardial ^3H2O and ^14CO2 production were determined at 20 minute intervals for the 60 minute reperfusion period. In the low flow demand ischemia model, the total myocardial ^3H2O and ^14CO2 production were determined at 10 minute intervals for the 30 minute reperfusion period. Glucose oxidation rates were determined by quantitative measurement of ^14CO2 production as described previously (Barbour R. L., et al. Biochemistr. 1923:6503-6062 (1984)).

[2] = system: isolated rat hearts; test: Isolated working rat heart, aerobic perfusion: cardiac function and efficiency; set-up: Cardiac Work (CO · PSP): unit not given beside the values
Description: as §1
Spontaneously beating hearts were used in all perfusions. Heart rate and aortic pressure were measured with a Biopac Systems Inc. blood pressure transducer connected to the aortic outflow line. Cardiac output and aortic flow were measured with Transonic T206 ultrasonic flow probes in the preload and afterload lines, respectively. Coronary flow was calculated as the difference between cardiac output and aortic flow. The O2 contents of the perfusate entering and leaving the heart were measured using YSI™ micro oxygen electrodes placed in the preload and pulmonary arterial lines, respectively. Myocardial O2 consumption (MVO2) was calculated according to the Fick principle, using coronary flow rates and the arteriovenous difference in perfusate O2 concentration. Cardiac work was calculated as the product of systolic pressure and cardiac output. Cardiac efficiency was defined as a ratio of cardiac work to MVO2.

[3] = aerobically perfused, DCA 2 mM, diltiazem 0.8 μM, digoxin 3 nM, metoprolol 1 μM, dobutamine 1 μM

COCCc1ccc(OCC(O)CNC(C)C)cc1 (stereo not shown) [Metoprolol, metoprolol]
glucose oxidation rates ([1]; FIG. 1, 3, 5, 7, control 361±43): 651±222 | glycolytic rates (glycolysis) ([1]; FIG. 2, 4, 6, 8, control 3.430±0.604): 4.530±0.876 | Aortic Outflow [2, 3]: 35 ± 5 mL/min | Cardiac Efficiency (CW · O2^−1) [2, 3]: 1.85 ± 0.15 | Cardiac Output [2, 3]: 55 ± 8 mL/min | Cardiac Work (CO · PSP) [2, 3]: 71 ± 10 | Coronary Flow [2, 3]: 20 ± 3 mL/min | HR × PSP [2, 3]: 32 ± 4 beats · min^−1 · mmHg · 10^−2 | Heart Rate [2, 3]: 250 ± 26 beats · min^−1 | O2 Consumption [2, 3]: 40 ± 9 μmolO2 · g dry wt^−1 · min^−1 | Peak Systolic Pressure [2, 3]: 130 ± 2 mmHg | effect on functional parameters shown in Table 2 incl. O2 consumption and cardiac efficiency, in words ([2]; normal hearts, aerobic, compared to control): no significant effect | effect on functional parameters shown in Table 1 (heart rate, peak systolic pressure, HR×PSP), in words ([2]; normal hearts, aerobic, compared to control (DCA and dobutamine: compared to dobutamine alone)): no significant effect
